Results from patent US20050142169A1, “Palatability enhanced composition and method for animal consumption” (priority 2003, published 2005).
Like-named read-outs stand apart in the source and are kept apart here.

Key:
[1] = tested on: dogs; settings: for Intake Ratio / Preference (%) control composition / Preference (%) test composition / Status (vs. control): dry wt. of kibble, dogs, Hill's Canine Maintenance Adult
Description: The experiment comprised mixing various amounts of 2,5-dimethyl-4-hydroxy-3(2H)-furanone (0.2% to 1.2%) with a commercial liquid palatant enhancer as a carrier to form a flavored palatant (hereinafter test flavor). The test flavor (2.0%, dry weight basis) was topically applied to a dry, commercial dog food (Hill's Canine Maintenance Adult, a Science Diet for adult dogs commercially available from Hill's Pet Nutrition, Inc., Topeka, Kans.) after sequential application of soy bean oil (1.2%, dry weight basis) and choice white grease (7.9%, dry weight basis) to form a test composition.
Each test composition was compared against a control composition in a palatability test. The control compositions were prepared by topically applying the commercial liquid palatant enhance (2.0% dry weight basis) to the dry, commercial dog food (Hill's Canine Maintenance Adult) after sequential application of soy bean oil (1.2%, dry weight basis) and choice white grease (7.9%, dry weight basis). Palatability was determined by comparing the test composition and the control composition in a standard two-bowl preference test over two days with 20 dogs.

[2] = tested on: dogs; assay: two-bowl preference test, Example 3 (Canine w/d, 3.5% test flavor); assay type: in vivo, dog; settings: dry wt. of kibble, test flavor 3.5%
Description: Each of the test flavors (3.5%, dry weight basis) was topically applied to a dry, commercial dog food (Canine w/d from Hill's Pet Nutrition, Inc.) after topical application of a commercial dry palatant enhancer in choice white grease (0.6%, dry weight basis) to form a test composition. Each test composition was compared against a control composition in a palatability test as described in Example 1. The control compositions were prepared by topically applying the commercial liquid palatant enhancer (3.5% dry weight basis) to the dry, commercial dog food (Canine w/d) after application of a commercial dry palatant enhancer in choice white grease (0.6%, dry weight basis). Palatability was determined by comparing the test composition and the control composition in a standard two-bowl preference test over two days with 20 dogs as described in Example 1.

[3] = tested on: cats; assay: two-bowl preference test, Example 6 (Feline w/d); assay type: in vivo, cat; settings: dry wt. of kibble
Description: Finally, a commercial dry palatant enhancer (1.4% dry weight basis) was topically applied to the dry kibbles to complete the test composition.

[4] = tested on: dogs; assay: two-bowl preference test, Example 2 (Canine r/d); assay type: in vivo, dog; settings: dry wt. of kibble
Description: Each of the test flavors (2.0%, dry weight basis) was topically applied to a dry, commercial dog food (Canine r/d from Hill's Pet Nutrition, Inc.) after sequential application of soy bean oil (2.0%, dry weight basis) and choice white grease (0.4%, dry weight basis) to form a test composition. Each test composition was compared against a control composition in a palatability test as described in Example 1. The control compositions were prepared by topically applying the commercial liquid palatant enhancer (2.0% dry weight basis) to the dry, commercial dog food (Canine r/d) after sequential application of soy bean oil (2.0%, dry weight basis) and choice white grease (0.4%, dry weight basis). Palatability was determined by comparing the test composition and the control composition in a standard two-bowl preference test over two days with 20 dogs as described in Example 1.

[5] = Exp. No. 7, second set of experiments, 1 ppm
[6] = Exp. No. 8, second set of experiments, 2 ppm
[7] = Exp. No. 9, second set of experiments, 3 ppm
[8] = Exp. No. 10, second set of experiments, 4 ppm
[9] = Exp. No. 11, second set of experiments, 5 ppm
[10] = Exp. No. 12, second set of experiments, 10 ppm

SMILES: CC1=C(O)C(=O)C(C)O1 (stereo not shown) [2,5-dimethyl-4-hydroxy-3(2H)-furanone]
- Intake Ratio ([1]; Exp. No. 2, 43.5 ppm): 0.5705
- Preference (%) control composition ([1]; Exp. No. 2, 43.5 ppm): 27.8%
- Preference (%) test composition ([1]; Exp. No. 2, 43.5 ppm): 61.1%
- Status (vs. control) ([1]; Exp. No. 2, 43.5 ppm): Parity
- Intake Ratio ([1]; Exp. No. 3, 87.1 ppm): 0.7361
- Preference (%) control composition ([1]; Exp. No. 3, 87.1 ppm): 10.0%
- Preference (%) test composition ([1]; Exp. No. 3, 87.1 ppm): 90.0%
- Status (vs. control) ([1]; Exp. No. 3, 87.1 ppm): Win
- Intake Ratio ([1]; Exp. No. 4, 130.5 ppm): 0.5673
- Preference (%) control composition ([1]; Exp. No. 4, 130.5 ppm): 25.0%
- Preference (%) test composition ([1]; Exp. No. 4, 130.5 ppm): 50.0%
- Status (vs. control) ([1]; Exp. No. 4, 130.5 ppm): Win
- Intake Ratio ([1]; Exp. No. 5, 217.5 ppm): 0.6575
- Preference (%) control composition ([1]; Exp. No. 5, 217.5 ppm): 40.0%
- Preference (%) test composition ([1]; Exp. No. 5, 217.5 ppm): 60.0%
- Status (vs. control) ([1]; Exp. No. 5, 217.5 ppm): Win
- Intake Ratio ([1]; Exp. No. 6, 217.5 ppm): 0.8206
- Preference (%) control composition ([1]; Exp. No. 6, 217.5 ppm): 5.0%
- Preference (%) test composition ([1]; Exp. No. 6, 217.5 ppm): 95.0%
- Status (vs. control) ([1]; Exp. No. 6, 217.5 ppm): Win
- intolerance of the test palatant following intake ([1]; dog, in vivo): No evidence of any intolerance
- Intake Ratio ([2]; Exp. No. 1, 87.1 ppm): 0.7301
- Preference (%) control composition ([2]; Exp. No. 1, 87.1 ppm): 16.7%
- Preference (%) test composition ([2]; Exp. No. 1, 87.1 ppm): 83.3%
- Status (vs. control) ([2]; Exp. No. 1, 87.1 ppm): Win
- Intake Ratio ([2]; Exp. No. 2, 130.5 ppm): 0.7323
- Preference (%) control composition ([2]; Exp. No. 2, 130.5 ppm): 8.0%
- Preference (%) test composition ([2]; Exp. No. 2, 130.5 ppm): 88.0%
- Status (vs. control) ([2]; Exp. No. 2, 130.5 ppm): Win
- Intake Ratio ([2]; Exp. No. 3, 174.0 ppm): 0.6669
- Preference (%) control composition ([2]; Exp. No. 3, 174.0 ppm): 24.0%
- Preference (%) test composition ([2]; Exp. No. 3, 174.0 ppm): 76.0%
- Status (vs. control) ([2]; Exp. No. 3, 174.0 ppm): Win
- Intake Ratio ([2]; Exp. No. 4, 217.5 ppm): 0.5713
- Preference (%) control composition ([2]; Exp. No. 4, 217.5 ppm): 40.0%
- Preference (%) test composition ([2]; Exp. No. 4, 217.5 ppm): 60.0%
- Status (vs. control) ([2]; Exp. No. 4, 217.5 ppm): Parity
- Intake Ratio ([3]; Exp. No. 1, 1 ppm): 0.7653
- Preference (%) control composition ([3]; Exp. No. 1, 1 ppm): 20.0%
- Preference (%) test composition ([3]; Exp. No. 1, 1 ppm): 80.0%
- Status (vs. control) ([3]; Exp. No. 1, 1 ppm): Win
- Intake Ratio ([3]; Exp. No. 2, 2 ppm): 0.8280
- Preference (%) control composition ([3]; Exp. No. 2, 2 ppm): 17.6%
- Preference (%) test composition ([3]; Exp. No. 2, 2 ppm): 82.6%
- Status (vs. control) ([3]; Exp. No. 2, 2 ppm): Win
- Intake Ratio ([3]; Exp. No. 3, 3 ppm): 0.9457
- Preference (%) control composition ([3]; Exp. No. 3, 3 ppm): 4.3%
- Preference (%) test composition ([3]; Exp. No. 3, 3 ppm): 95.7%
- Status (vs. control) ([3]; Exp. No. 3, 3 ppm): Win
- Intake Ratio ([3]; Exp. No. 4, 4 ppm): 0.8426
- Preference (%) control composition ([3]; Exp. No. 4, 4 ppm): 16.0%
- Preference (%) test composition ([3]; Exp. No. 4, 4 ppm): 84.0%
- Status (vs. control) ([3]; Exp. No. 4, 4 ppm): Win
- Intake Ratio ([3]; Exp. No. 5, 5 ppm): 0.8957
- Preference (%) control composition ([3]; Exp. No. 5, 5 ppm): 11.1%
- Preference (%) test composition ([3]; Exp. No. 5, 5 ppm): 88.9%
- Status (vs. control) ([3]; Exp. No. 5, 5 ppm): Win
- Intake Ratio ([3]; Exp. No. 6, 10 ppm): 0.8596
- Preference (%) control composition ([3]; Exp. No. 6, 10 ppm): 4.2%
- Preference (%) test composition ([3]; Exp. No. 6, 10 ppm): 95.8%
- Status (vs. control) ([3]; Exp. No. 6, 10 ppm): Win
- Intake Ratio [3, 5]: 0.9077
- Preference (%) control composition [3, 5]: 4.2%
- Preference (%) test composition [3, 5]: 95.8%
- Status (vs. control) [3, 5]: Win
- Intake Ratio [3, 6]: 0.7613
- Preference (%) control composition [3, 6]: 16.0%
- Preference (%) test composition [3, 6]: 84.0%
- Status (vs. control) [3, 6]: Win
- Intake Ratio [3, 7]: 0.8206
- Preference (%) control composition [3, 7]: 13.6%
- Preference (%) test composition [3, 7]: 86.4%
- Status (vs. control) [3, 7]: Win
- Intake Ratio [3, 8]: 0.8957
- Preference (%) control composition [3, 8]: 4.2%
- Preference (%) test composition [3, 8]: 95.7%
- Status (vs. control) [3, 8]: Win
- Intake Ratio [3, 9]: 0.8596
- Preference (%) control composition [3, 9]: 12.5%
- Preference (%) test composition [3, 9]: 87.5%
- Status (vs. control) [3, 9]: Win
- Intake Ratio [3, 10]: 0.7976
- Preference (%) control composition [3, 10]: 15.0%
- Preference (%) test composition [3, 10]: 85.0%
- Status (vs. control) [3, 10]: Win
- Intake Ratio ([4]; Exp. No. 1, 21.75 ppm): 0.5843
- Preference (%) control composition ([4]; Exp. No. 1, 21.75 ppm): 42.9%
- Preference (%) test composition ([4]; Exp. No. 1, 21.75 ppm): 50.0%
- Status (vs. control) ([4]; Exp. No. 1, 21.75 ppm): Parity
- Intake Ratio ([4]; Exp. No. 2, 43.5 ppm): 0.6667
- Preference (%) control composition ([4]; Exp. No. 2, 43.5 ppm): 16.7%
- Preference (%) test composition ([4]; Exp. No. 2, 43.5 ppm): 77.8%
- Status (vs. control) ([4]; Exp. No. 2, 43.5 ppm): Win
- Intake Ratio ([4]; Exp. No. 3, 87.1 ppm): 0.5732
- Preference (%) control composition ([4]; Exp. No. 3, 87.1 ppm): 29.4%
- Preference (%) test composition ([4]; Exp. No. 3, 87.1 ppm): 64.7%
- Status (vs. control) ([4]; Exp. No. 3, 87.1 ppm): Parity
- Intake Ratio ([4]; Exp. No. 4, 174.0 ppm): 0.5523
- Preference (%) control composition ([4]; Exp. No. 4, 174.0 ppm): 31.3%
- Preference (%) test composition ([4]; Exp. No. 4, 174.0 ppm): 50.0%
- Status (vs. control) ([4]; Exp. No. 4, 174.0 ppm): Parity
- Intake Ratio ([4]; Exp. No. 5, 217.5 ppm): 0.5047
- Preference (%) control composition ([4]; Exp. No. 5, 217.5 ppm): 66.7%
- Preference (%) test composition ([4]; Exp. No. 5, 217.5 ppm): 33.3%
- Status (vs. control) ([4]; Exp. No. 5, 217.5 ppm): Parity
- Intake Ratio ([4]; Exp. No. 6, 282.8 ppm): 0.4297
- Preference (%) control composition ([4]; Exp. No. 6, 282.8 ppm): 47.1%
- Preference (%) test composition ([4]; Exp. No. 6, 282.8 ppm): 52.9%
- Status (vs. control) ([4]; Exp. No. 6, 282.8 ppm): Parity
